According to paper PMC4088952 (Psychoneuroendocrinology, 2014):
“And” between values parts separate entries of the source, which are not always exact repeats. Identical values can stand only once.

Assays:
[1] = tested on: plasma OT levels; experiment: Plasma oxytocin levels after oral MDMA; type: in vivo, humans
[2] = tested on: subjective drug effects; experiment: Drug Effects Questionnaire; type: in vivo, humans; conditions: oral MDMA; all subjective ratings (DEQ and VAS)
[3] = tested on: heart rate and blood pressure; experiment: Cardiovascular measures; type: in vivo, humans; conditions: intranasal oxytocin 20 IU or 40 IU versus placebo

Compound | plasma OT levels compared to placebo ([1]; oral MDMA 0.75 mg/kg, N=14, t[13] = 2.96, p = 0.07) | duration of plasma OT elevation ([1]; oral MDMA 1.5 mg/kg) | time of mean peak plasma OT concentration after capsule ingestion ([1]; oral MDMA 1.5 mg/kg, N=14) | time to significantly elevated plasma OT following capsule administration ([1]; oral MDMA 1.5 mg/kg, first time point) | time of peak effects on all subjective ratings after capsule ingestion [2] | plasma OT levels compared to placebo (intranasal oxytocin 20 IU, N=6) | duration of plasma OT elevation (intranasal oxytocin 40 IU) | time of peak plasma OT after nasal spray administration (intranasal oxytocin 40 IU, N=8) | cardiovascular and subjective effects [3]
CNC(C)Cc1ccc2c(c1)OCO2 (racemic) [MDMA, ±3,4-methylenedioxymethamphetamine] | slightly increased compared to placebo but this difference did not reach significance | 3 h | 90 to 120 min and 120 min | ≤ 60 min | 60 to 120 min |  |  |  | 
CC[C@H](C)[C@@H]1NC(=O)[C@H](Cc2ccc(O)cc2)NC(=O)[C@@H](N)CSSC[C@@H](C(=O)N2CCC[C@H]2C(=O)N[C@@H](CC(C)C)C(=O)NCC(N)=O)NC(=O)[C@H](CC(N)=O)NC(=O)[C@H](CCC(N)=O)NC1=O [Oxytocin, oxytocin] |  |  |  |  |  | did not observe an increase in plasma OT | 30 min | 30 to 60 min | no cardiovascular or subjective effects
